Values of other authors, collected in patent US11904118B2, “Drug delivery medical device” (Micell Medtech Inc., priority 2010, dated 2024).

Target: FKBP12 (Homo sapiens, UniProt P62942)
Sequence (P62942 whole entry, species assumed): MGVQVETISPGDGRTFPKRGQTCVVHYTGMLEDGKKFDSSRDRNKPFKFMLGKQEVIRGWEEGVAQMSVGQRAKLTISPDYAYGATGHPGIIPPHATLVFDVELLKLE

| SMILES | FKBP12 binding [nM] | FKBP12 binding (nM) |
| --- | --- | --- |
| CO[C@H]1C[C@@H]2CC[C@@H](C)[C@@](O)(O2)C(=O)C(=O)N2CCCC[C@H]2C(=O)O[C@H]([C@H](C)C[C@@H]2CC[C@@H](OCCO)[C@H](OC)C2)CC(=O)[C@H](C)/C=C(\C)[C@@H](O)[C@@H](OC)C(=O)[C@H](C)C[C@H](C)/C=C/C=C/C=C/1C [Everolimus, 40-O-(2-Hydroxyethyl)rapamycin] | 1.8 to 2.6 |  |
| CO[C@H]1C[C@@H]2CC[C@@H](C)[C@@](O)(O2)C(=O)C(=O)N2CCCC[C@H]2C(=O)O[C@H]([C@H](C)C[C@@H]2CC[C@@H](OC(=O)C(C)(CO)CO)[C@H](OC)C2)CC(=O)[C@H](C)/C=C(\C)[C@@H](O)[C@@H](OC)C(=O)[C@H](C)C[C@H](C)/C=C/C=C/C=C/1C [Temsirolimus, 42-[3-hydroxy-2-(hydroxymethyl)-2-methylpropanoate]rapamycin] |  | about the same as Sirolimus |
| CO[C@H]1C[C@@H]2CC[C@@H](C)[C@@](O)(O2)C(=O)C(=O)N2CCCC[C@H]2C(=O)O[C@H]([C@H](C)C[C@@H]2CC[C@H](n3cnnn3)[C@H](OC)C2)CC(=O)[C@H](C)/C=C(\C)[C@@H](O)[C@@H](OC)C(=O)[C@H](C)C[C@H](C)/C=C/C=C/C=C/1C [Zotarolimus] | 2.0 to 3.2 |  |
| CC[C@@H]1/C=C(\C)C[C@H](C)C[C@H](OC)[C@H]2O[C@@](O)(C(=O)C(=O)N3CCCC[C@H]3C(=O)O[C@H](/C(C)=C/[C@@H]3CC[C@H](Cl)[C@H](OC)C3)[C@H](C)[C@@H](O)CC1=O)[C@H](C)C[C@@H]2OC [Pimecrolimus] |  | about 1.2 nM |
| C=CC[C@@H]1/C=C(\C)C[C@H](C)C[C@H](OC)[C@H]2O[C@@](O)(C(=O)C(=O)N3CCCC[C@H]3C(=O)O[C@H](/C(C)=C/[C@@H]3CC[C@@H](O)[C@H](OC)C3)[C@H](C)[C@@H](O)CC1=O)[C@H](C)C[C@@H]2OC [Tacrolimus] | 0.2 to 0.4 |  |
